The subject of experiment [1] is RAW 264.7 cells. Kind of experiment: PGE2 production/accumulation in LPS-stimulated RAW 264.7 cells. It is filed as cell-based, murine. As to the method:
(§1) Murine macrophages (RAW 263.7 cells) which were grown in Dulbecco's modified eagle medium (DMEM) containing 10% fetal bovine serum, 2 mM glutamine, 50 U/ml penicillin and 50 μg/ml streptomycin, were stimulated with 100 ng/ml LPS to induce both NOS and COX-2 at 16 hr. […] The data presented in FIG. 1 represents mean±SD as examined by T test were n=3.
(§2) The effects of CMTs 1, 2, 3, 5 and 8 on PGE2 and NO accumulation in RAW 264.7 cells were further evaluated as described above for CMT-3. […]

The test system of experiment [2] is RAW 264.7 cells. In words: Nitrite (NO) production/accumulation in LPS-stimulated RAW 264.7 cells. It counts as cell-based, murine. The settings on record: LPS 100 ng/ml, 16 hours. The method, then:
as §1, §2

For experiment [3], the system named is bovine chondrocytes. Kind of experiment: PGE2 production in LPS stimulated bovine chondrocytes (radioimmunoassay). It is filed as cell-based. The settings on record: FIGS. 3 and 9, words; for Effect on PGE2 production: LPS 100 μg/ml, 72 hrs. As to the method: After 48 hours the medium was changed and the cells were incubated with CMT-3 or N-monomethyl arginine (NMMA) for 2 hours before stimulating them with 100 μg/ml LPS. DMSO was used as a carrier for the modulators and the DMSO concentration was maintained (<0.01% v/v) in the cultures. Equivalent amounts of DMSO was also added to the control cultures. The levels of COX-2 dependent PGE2 release was assayed after 72 hrs by radioimmunoassay. […] The data represents mean±SD which was evaluated by T test where n=3.

Experiment [4] concerns bovine chondrocytes. Kind of experiment: Nitrite (NO) production in LPS stimulated bovine chondrocytes. It counts as cell-based. The conditions noted are these: FIGS. 3 and 9; LPS 100 μg/ml; words.
Experiment [5] deals with OA-affected cartilage. In words: Spontaneous PGE2 release by OA-affected cartilage (ex vivo organ culture). It is filed as cell-based, human. The settings on record: for Effect on PGE2 production: human OA-affected cartilage, words. As to the method: (§3) Human osteoarthritis affected cartilage spontaneously release nitric oxide (NO) and PGE2 in the medium as previously reported (Amin et al, 1995a; 1997a). The OA-organ cultures were set up as described (Amin et al, 1995a; 1997a). Briefly, total knee articular cartilage from tibial plateau and femoral condyle were harvested from OA-affected patients. The cartilage was mixed and cut into 3-mm discs and 4-6 discs were placed in triplicate or quadruplicate, in a 24-well plate in 2.0 ml of Ham's F-12 medium supplemented with 0.2% endotoxin free human albumin, 10 mM Hepes pH 7.4 and antibiotics in the presence of various modulators, as previously described (Amin et al, 1995a; 1997a). CMT-8 was used at pharmacologically relevant concentrations in DMSO (<0.01% final concentration) as carrier. An equivalent amount of DMSO was also added in the control cultures.
(§4) The p value between control and CMT-8 treated values for PGE2≤0.1 (insignificant) whereas the p values between NMMA treated cartilage and CMT-8 treated cartilage was ≤0.001 (significant). The data are represented as mean±SD as examined by T test when n=3. Data represent±SD value as determined by Student's t test n=4. The P values described are compared with control unstimulated OA-cartilage. The data represents one of the two similar experiments. P values for PGE2 and Nitrite=^a≤0.5; ^b≤0.1; ^c≤0.05; ^d≤0.01.

Experiment [6] concerns OA-affected cartilage. Kind of experiment: Spontaneous nitrite/nitric oxide release by OA-affected cartilage (ex vivo organ culture). It counts as cell-based, human. The conditions noted are these: for Effect on NO production: human OA-affected cartilage, words. The method, then: as §3, §4
In another experiment the test system is TNFα. In words: TNFα release in the medium by HEK 293 cells permanently transfected with human proTNFα (ELISA). It is filed as cell-based. The conditions noted are these: words; for Effect on spontaneous TNFα release: FIG. 8, 16 hours. As to the method: HEK 293 cells were transfected with the proTNFα cDNA (wild) to prepare a stable cell line. […] A mutant form of proTNFα cDNA which could not be cleaved by the endogenous TNFα convertase (TACE) to release soluble TNFα was also transfected in separate human HEK 293 cells. The soluble TNFα was estimated by ELISA from the wild type and mutant transfected cells from the medium (FIG. 6).
HEK 293 cells were grown as previously described by American Type Culture Collection (ATCC). […] The HEK 293 cells were incubated with CMT-3 to examine the effects of CMT-3 on TNFα release in the medium.
HEK 293 cells were grown under the conditions previously described by ATCC. Various compounds, including CMT-3 and doxycycline/minocyclines were incubated with proTNFα transfected HEK 293 cells releasing TNFα in the medium at 16 hours. […] Soluble TNFα was estimated by ELISA from the medium.
Background: In an ELISA, binding on a coated surface is turned into a signal by an enzyme label.

Experiment [7] deals with T1, COX-2 (Mus musculus, UniProt Q05769).
T1 construct: using total unfractionated cell extracts; endogenous in cells; host or cells: RAW 264.7 cells, LPS-induced; cell-free extract
T1 sequence (Q05769 18-604): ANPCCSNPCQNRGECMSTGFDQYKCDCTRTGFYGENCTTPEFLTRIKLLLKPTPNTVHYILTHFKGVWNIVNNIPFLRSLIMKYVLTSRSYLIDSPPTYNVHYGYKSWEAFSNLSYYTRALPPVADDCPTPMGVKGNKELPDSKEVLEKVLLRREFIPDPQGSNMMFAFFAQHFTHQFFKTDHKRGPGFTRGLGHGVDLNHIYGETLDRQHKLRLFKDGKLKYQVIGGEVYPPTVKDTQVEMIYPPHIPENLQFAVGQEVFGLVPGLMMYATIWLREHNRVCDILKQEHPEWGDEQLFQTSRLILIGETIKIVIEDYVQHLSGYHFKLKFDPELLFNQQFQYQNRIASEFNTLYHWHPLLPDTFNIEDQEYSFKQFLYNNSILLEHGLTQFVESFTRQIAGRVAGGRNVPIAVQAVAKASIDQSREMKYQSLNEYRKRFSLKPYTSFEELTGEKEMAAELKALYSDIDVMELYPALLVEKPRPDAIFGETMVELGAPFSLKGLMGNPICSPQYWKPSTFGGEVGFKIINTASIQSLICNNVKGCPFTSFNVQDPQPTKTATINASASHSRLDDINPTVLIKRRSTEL
In words: COX-2 specific activity in cell-free extracts of LPS-stimulated RAW 264.7 cells (PGE2 by RIA). It is filed as biochemical, murine. As to the method:
Raw 264.7 cells were stimulated with LPS and cell-free extracts were prepared as follows. RAW 264.7 cells were induced with LPS (100 ng/ml) in the presence or absence of tetracyclines or hydrocortisone for 14-20 hours. Following induction, the cells were pelleted at 4° C. and resuspended in Tris buffer: 10 mM, pH 7.4 containing 10 μg/ml each of chymostatin, antipain, leupeptin and pepstatin, 1 mM DDT and 1 mM PMSF. Cells were lysed in a Polytron PA 1200 homogenizer (Kinematica AG, Switzerland) with the cocktail of protease inhibitors after 3 cycles of rapid freeze-thawing. The lysate was centrifuged at 18,000 at 4° C. in an eppendorf centrifuge, and the resulting supernatant was used as cell-free extracts. The protein was measured by BCA assay reagent (Pierce, Rockford, Ill.) using BSA as standard. […] The specific enzyme activity was defined as ng of PGE2 released/mg protein/37° C. for 20 minutes.
RAW 264.7 cells were stimulated with 1 μg/ml of LPS for 16 hours and cell-free extracts were prepared as described above. The extracts were incubated with different modulators for 20 minutes at 37° C. before adding the substrate to initiate the enzyme reaction, which was terminated after 30 minutes by heat inactivation. The data represent one of the two experiments, the PGE2 analysis from each sample was done in triplicates n=3. The p value is a comparison between control and experimentals.

Experiment [8] concerns COX-2. In words: COX-2 expression in cells/cartilage (general statement). It counts as cell-based. The conditions noted are these: words.
A further experiment has as its system iNOS mRNA. The settings on record: Amin et al, 1997b; words; cited from earlier work.
For experiment [9] the following is noted: words; cited from earlier work.
Another experiment has as its system OA. The conditions noted are these: prophylactic administration; Yu et al (1992); words; cited from earlier work.
In experiment [10] the test system is OA-affected cartilage. The conditions noted are these: Amin et al, 1997a; words; cited from earlier work.
The test system of experiment [11] is OA-affected cartilage. The settings on record: Amin et al, 1997a; words; cited from earlier work. This is another data set of the same source.
The next experiment deals with NOS. The conditions noted are these: background; words; cited from earlier work.

For orientation: inhibition means the drop in the measured response relative to a control, in per cent. High values mean a strong effect, low ones a weak effect.

Each structure is given as a SMILES string. Entries after “also recorded” stand apart in the source; their conditions may differ. Read-outs that look alike come from different tables or passages of the source.

With `C[C@H]1c2cccc(O)c2C(O)=C2C(=O)[C@]3(O)C(O)=C(C(N)=O)C(=O)C[C@@H]3[C@@H](O)[C@@H]21` [CMT-8, 6-α-deoxy-5-hydroxy-4-dedimethylaminotetracycline], the PGE2 accumulation in the experiment with RAW 264.7 cells [1] (16 h, 10 ug/mL) worked out at 27.2 ± 3.4 ng/mL; in the experiment on RAW 264.7 cells [1] (Experiment II, LPS 100 ng/ml, compound 10 μg/ml, 16 hours), 24.3 ± 4.5 ng/mL. For the same compound, the Nitrite with RAW 264.7 cells [2] (Experiment I, compound 10 μg/ml) stood at 36.0 µM; in the experiment with OA-affected cartilage [6] (Table 2, 5 μg/ml), 47.0 ± 22.0 µM. Besides, the inhibition at 10 µg/mL in the experiment on RAW 264.7 cells [2] (Mus musculus, RAW264.7, 16 h, Experiment I, compound 10 μg/ml) was determined as 28%. Moreover, the “Effect on PGE2 production” value in the experiment with bovine chondrocytes [3] was “inhibit NO and PGE2 production”; in the experiment on OA-affected cartilage [5], “inhibits PGE2 in a dose dependent manner; also recorded: significantly inhibit; also recorded: inhibited both NO and PGE2 production; also recorded: inhibits COX-2 expression and PGE2 production”. Further, the “Effect on L-NMMA induced PGE2 up-regulation” value with bovine chondrocytes [3] is “inhibits the L-NMMA induced PGE2 up-regulation”. Also, the “Effect on NO production” value with bovine chondrocytes [4] was “inhibit NO and PGE2 production”; in the experiment on OA-affected cartilage [6], “inhibits NOS and NO production; also recorded: significantly inhibit; also recorded: inhibited both NO and PGE2 production; also recorded: inhibiting NO production”. Besides, the inhibition at 5 µg/mL in the experiment on OA-affected cartilage [5] (Homo sapiens, Table 2, 5 μg/ml) amounted to 58%; in the experiment with OA-affected cartilage [6] (Homo sapiens, Table 2, 5 μg/ml) it was 40%. In the experiment on OA-affected cartilage [5] (Table 2, 5 μg/ml), this compound gave a PGE2 of 94.7 ± 39.2 ng/mL. For the same compound, in the experiment on TNFα, the “Effect on spontaneous TNFα release” value is reported as “inhibit the spontaneous TNFα release”. Also, the “Inhibition of TNFα (summary statement)” value in the experiment with TNFα (HEK 293 cells transfected with proTNFα cDNA, low levels) is listed as “inhibiting TNFα”. Moreover, on COX-2 [7] (CMT-3 27 μM, CMT-8 27 μM, aspirin 56 μM, indomethacin 28 μM, words), the “Effect on specific activity of COX-2” value is recorded as “significantly inhibited the specific activity of COX-2”. For the same compound, the “COX-2 Specific Activity” value on COX-2 [7] (Table 3, cell-free extracts, 10 μg (aspirin amount not given)) is given as 4.3 ± 0.1 PGE2 ng/mg protein. Further, the “Effect on COX-2 expression” value in the experiment on COX-2 [8] was “inhibits COX-2 expression and PGE2 production”. Further, the “Effect on iNOS mRNA expression” value in the experiment on iNOS mRNA is recorded as “inhibiting iNOS mRNA expression”. Besides, in [9], the Antimicrobial activity result is listed as “no antimicrobial activity”.

For `C[C@H]1c2cccc(O)c2C(O)=C2C(=O)[C@]3(O)C(O)=C(C(N)=O)C(=O)[C@@H](N(C)C)[C@@H]3[C@@H](O)[C@@H]21` [Doxycycline, doxycycline, reference compound], the “Effect on PGE2 production” value with OA-affected cartilage [5] is “up-regulate COX-2 expression and PGE2 production”. The “Effect on NO production” value in the experiment on OA-affected cartilage [6] is recorded as “inhibit NO production”. In addition, the “Effect on spontaneous TNFα release” value in the experiment on TNFα is “inhibit TNFα release”. For the same compound, the “Effect on COX-2 expression” value in the experiment with COX-2 [8] was “up-regulate COX-2 expression and PGE2 production”. For the same compound, in the experiment with OA, the “Severity of OA” value is “markedly reduced the severity of OA”.

For the compound `CN=C(N)NCCC[C@H](N)C(=O)O` [L-NMMA, N^G -monomethyl-L-arginine acetate, reference compound], the “Effect on PGE2 production” value is reported as “augments PGE2 production” in the experiment with RAW 264.7 cells [1] (FIG. 1, LPS 100 ng/ml, 16 hours, words); “augments PGE2 production” in the experiment with bovine chondrocytes [3]; “augments PGE2 production” in the experiment with OA-affected cartilage [10]; “augmenting PGE2 production” in the experiment on NOS. Further, the “Effect on NO production” value in the experiment with RAW 264.7 cells [2] (FIG. 1, words) is given as “blocks NO production”; in the experiment on bovine chondrocytes [4], “inhibits NO production”. Further, the “Effect on NOS and NO production” value in the experiment with OA-affected cartilage [11] is “inhibits NOS and NO production”. Further, in the experiment with NOS, the “Effect on production of NO” value is on record as “inhibit the production of NO”.

(Values after US6319910A, “Method for inhibiting cyclooxygenase-2 and tumor necrosis factor alpha” (Hospital for Joint Diseases, priority 1998, dated 2001).)
